According to US8901345B2, “Process for preparation of optically active diamine derivative salt” (Daiichi Sankyo Company, Limited, priority 2010, dated 2014):
Entries after “also recorded” stand apart in the source; their conditions may differ. Where a name gives a salt, the structure may show the parent alone.

Key:
Assay type in all cases: physicochemical
[1] = Comparison of water solubility of crystals in hydrous toluene/acetonitrile; details: compared with monohydrate crystals of (1b) in the cis-form; water added to a 13% toluene/acetonitrile solution to change percentage water content
Protocol: Water was added to a 13% toluene/acetonitrile solution to change the percentage water content to compare water solubility between the monohydrate crystals of the compound represented by formula (1b) and the monohydrate crystals of the trans-isomer compound represented by formula (1b-trans).

[2] = Crystal form transformation (solid form stability) of crystal polymorphs; details: for transformation of anhydrous crystals to monohydrate crystals: stirring at 25° C., depending on the percentage water content of the mother liquor, oxalate
Protocol: The Form 2 anhydrous crystals were also found to be excellent in operability such as filtration performance. Powder x-ray diffraction diagrams of the Form 1 and Form 2 anhydrous crystals of compound (1) are shown in FIGS. 1 and 2, respectively, and their diffraction diagrams based on thermal analysis are shown in FIGS. 5 and 6, respectively.
Compound (1a) was treated with anhydrous oxalic acid in 6% hydrous acetonitrile to obtain two crystal polymorphs of monohydrate crystals of the title compound represented by formula (1b) (this production method is described in Example 3 below). Powder x-ray diffraction diagrams of the Form 1 and Form 2 monohydrate crystals are shown in FIGS. 3 and 4, respectively, and their diffraction diagrams based on thermal analysis are shown in FIGS. 7 and 8, respectively.

[3] = Hygroscopicity of crystal polymorphs; details: among the crystal polymorphs of anhydrous crystals of compound (1)

CN(C)C(=O)[C@H]1CC[C@@H](N)[C@H](NC(=O)OC(C)(C)C)C1 [(1b-trans)]
water solubility [1]: highly water-soluble; also recorded: more water-soluble

CN(C)C(=O)[C@H]1CC[C@H](N)[C@H](NC(=O)OC(C)(C)C)C1 [Form 1 anhydrous crystals, tert-butyl {(1R,2S,5S)-2-amino-5-[(dimethylamino)carbonyl]cyclohexyl}carbamate oxalate]
transformation of anhydrous crystals to monohydrate crystals [2]: transformed to monohydrate crystals

CN(C)C(=O)[C@H]1CC[C@H](N)[C@H](NC(=O)OC(C)(C)C)C1 [Form 1 monohydrate crystals, tert-butyl {(1R,2S,5S)-2-amino-5-[(dimethylamino)carbonyl]cyclohexyl}carbamate oxalate monohydrate]
crystal transformation when left standing ([2]; left at room temperature for approximately 2 hours): transformed to Form 2 monohydrate crystals

CN(C)C(=O)[C@H]1CC[C@H](N)[C@H](NC(=O)OC(C)(C)C)C1 [Form 2 anhydrous crystals, tert-butyl {(1R,2S,5S)-2-amino-5-[(dimethylamino)carbonyl]cyclohexyl}carbamate oxalate]
hygroscopicity [3]: much less hygroscopic
transformation of anhydrous crystals to monohydrate crystals [2]: hardly transformed to monohydrate crystals
